According to PubChem BioAssay (NCI):
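Method: 48-hour compound exposure of cells in 96-well plates, five concentrations, linear interpolation of endpoints. At the GI50, growth is halved. TGI: concentration producing complete growth inhibition.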

Legend:
Experiment in all cases: NCI-60 cell line screen, 48 h
SF-539 CNS = tested on: SF-539 CNS
MALME-3M melanoma = tested on: MALME-3M melanoma
U251 CNS = tested on: U251 CNS
SF-295 CNS = tested on: SF-295 CNS
NCI-H226 lung = tested on: NCI-H226 lung
SK-MEL-5 melanoma = tested on: SK-MEL-5 melanoma
MCF7 breast = tested on: MCF7 breast
HOP-62 NSCLC = tested on: HOP-62 NSCLC
MOLT-4 leukemia = tested on: MOLT-4 leukemia
OVCAR-4 ovarian = tested on: OVCAR-4 ovarian

Row | Compound | GI50 (SF-539 CNS) [µM] | TGI (SF-539 CNS) [µM] | GI50 (MALME-3M melanoma) [µM] | TGI (MALME-3M melanoma) [µM] | GI50 (U251 CNS) [µM] | TGI (U251 CNS) [µM] | GI50 (SF-295 CNS) [µM] | TGI (SF-295 CNS) [µM] | GI50 (NCI-H226 lung) [µM] | TGI (NCI-H226 lung) [µM] | GI50 (SK-MEL-5 melanoma) [µM] | TGI (SK-MEL-5 melanoma) [µM] | GI50 (MCF7 breast) [µM] | TGI (MCF7 breast) [µM] | GI50 (HOP-62 NSCLC) [µM] | TGI (HOP-62 NSCLC) [µM] | GI50 (MOLT-4 leukemia) [µM] | TGI (MOLT-4 leukemia) [µM] | GI50 (OVCAR-4 ovarian) [µM] | TGI (OVCAR-4 ovarian) [µM]
1 | COc1cc2nc(-c3ccc(Cl)cc3)cc(OCCCN3CCC(O)CC3)c2cc1OC | 2.28 | 6.78 | 1.89 | 4.95 | 2.81 | 22.5 | 1.66 | 3.58 | 1.39 | 3.62 | 1.27 | 2.56 | 1.6 | 3.79 | 1.98 | 10.4 | 1.8 | 4.54 | 4.34 | > 100
2 | Cn1cc(-c2ccc3c(c2)ncn3-c2ccc(CC(=O)Nc3cc(C(C)(C)C)on3)cc2)cn1 | 0.175 | 1.74 | 1.29 | 12.6 | 2.93 | > 42.7 | 1.26 | > 38.8 | 0.173 | 3.27 | 2.5 | 15.5 | 1.55 | > 52 | 1.41 | 29.4 | 1.58 | > 100 | 0.501 | 19.1
3 | C/C=C(\C)C(=O)O[C@@H]1C=CC(=O)O[C@H]1COC(=O)[C@H](C)O | 16.5 | 59.4 | 12.1 | 25.9 | 11.5 | 25 | 27.4 | 62.1 | 14.7 | 44.7 | 12.6 | 25.1 | 4.53 | 18.3 | 16.8 | 33.3 | 7.31 | 28.4 | 11.5 | 31
4 | COc1ccc(N=C/C=C/C(=C/COC(C)=O)OC(C)=O)cc1 | – | > 100 | – | 69.5 | – | 72.3 | – | > 100 | – | > 100 | – | 76.6 | – | > 100 | – | > 100 | – | > 100 | – | 93.8
5 | C#CCSc1nnnn1-c1ccc(Br)c(C)c1 | 18.1 | 36.5 | 27.2 | 71.8 | 12 | > 100 | 29.5 | > 100 | 26.4 | > 100 | 16.5 | 33.9 | 28.4 | > 100 | 64.3 | > 100 | 23.3 | > 100 | 31.1 | > 100
6 | C=C(CNCCc1ccc(O)cc1)[C@@H]1CC[C@]2(CO)CC[C@]3(C)[C@H](CC[C@@H]4[C@@]5(C)CCC(NCCO)C(C)(C)[C@@H]5CC[C@]43C)[C@@H]12 (stereo not given in full) | 1.5 | 2.87 | 1.54 | 3.08 | 1.06 | 2.24 | 1.72 | 3.34 | 2 | 4.31 | 1.73 | 3.21 | 0.4 | 1.76 | 1.64 | 3.23 | 0.657 | 2.92 | 1.4 | 3.17
7 | c1ccc(CNc2nc(Nc3ccc(-c4nc5ccccc5[nH]4)cc3)c3cn[nH]c3n2)cc1 | 2 | 5.19 | 1.81 | 3.8 | 2.27 | 5.85 | 1.7 | 3.84 | 2.98 | 8.43 | 1.74 | 3.3 | 1.95 | 6.35 | 2.17 | 5.48 | 2.43 | 6.33 | 2.28 | 7.14
8 | CC1(C)CCC(CN2CCN(c3ccc(C(=O)NS(=O)(=O)c4ccc(NCC5CCOCC5)c([N+](=O)[O-])c4)c(Oc4cnc5[nH]ccc5c4)c3)CC2)=C(c2ccc(Cl)cc2)C1 | 2.41 | 5.62 | 1.82 | 3.64 | 2.9 | 11.5 | 2.35 | 7.42 | 2.36 | 6.9 | 1.67 | 3.09 | 3.16 | 14.5 | 4.1 | 15.8 | 2.15 | 5.27 | 3.53 | 20.4
